Where “and” joins values, the source holds several entries; their conditions need not be identical. Identical values can stand only once. ± gives the expanded uncertainty stated by the source.
Settings: Liquid, Closed cell (Static) method

FC(C(F)(F)F)C(F)(F)F [1,1,1,2,3,3,3-heptafluoropropane]
Settings	vapor or sublimation pressure
253.31 K	86.81 ± 0.56 kPa
253.32 K	86.83 ± 0.56 kPa
253.33 K	86.86 ± 0.56 kPa
255.21 K	94.46 ± 0.56 kPa
257.26 K	103.23 ± 0.57 kPa and 103.26 ± 0.57 kPa
259.59 K	114.05 ± 0.57 kPa
261.28 K	122.37 ± 0.58 kPa
263.26 K	132.72 ± 0.58 kPa
265.17 K	143.42 ± 0.83 kPa
267.15 K	155.12 ± 0.83 kPa and 155.14 ± 0.83 kPa
269.19 K	167.93 ± 0.84 kPa
271.14 K	181.01 ± 0.85 kPa
273.13 K	195.16 ± 0.85 kPa
273.14 K	195.21 ± 0.85 kPa
273.16 K	195.29 ± 0.85 kPa
275.15 K	210.31 ± 0.86 kPa
275.17 K	210.44 ± 0.86 kPa
275.18 K	210.49 ± 0.86 kPa
276.99 K	224.91 ± 0.87 kPa
279.19 K	243.27 ± 0.88 kPa
281.14 K	260.66 ± 0.89 kPa
283.18 K	279.74 ± 0.9 kPa
285.18 K	299.49 ± 0.91 kPa
285.19 K	299.62 ± 0.91 kPa
287.14 K	319.89 ± 0.93 kPa
289.07 K	340.97 ± 0.94 kPa
289.1 K	341.37 ± 0.95 kPa
291.06 K	363.71 ± 0.96 kPa
291.16 K	365.01 ± 0.96 kPa
293.04 K	387.68 ± 0.98 kPa
293.15 K	388.98 ± 0.98 kPa
293.23 K	390.05 ± 0.98 kPa
295.22 K	415.24 ± 1 kPa
295.32 K	416.61 ± 1 kPa
297.21 K	441.61 ± 1 kPa
297.22 K	441.76 ± 1 kPa
299.07 K	467.46 ± 1.1 kPa
299.16 K	468.9 ± 1.1 kPa
301.54 K	503.72 ± 1.1 kPa
303.66 K	536.19 ± 1.1 kPa
305.19 K	560.59 ± 1.1 kPa
307.19 K	593.83 ± 1.2 kPa
309.51 K	634.38 ± 1.2 kPa
311.16 K	664.23 ± 1.2 kPa
313.13 K	701.36 ± 1.3 kPa
315.11 K	740.37 ± 1.3 kPa
317.15 K	781.99 ± 1.4 kPa
317.5 K	789.45 ± 1.4 kPa
319.51 K	832.46 ± 1.4 kPa
321.16 K	869.25 ± 1.5 kPa
323.13 K	914.73 ± 1.6 kPa
323.17 K	915.9 ± 1.6 kPa
325.11 K	962.18 ± 1.6 kPa
329.17 K	1065.4 ± 1.7 kPa
333.69 K	1190.1 ± 1.9 kPa
339.17 K	1355.8 ± 2.1 kPa
344.87 K	1545.3 ± 2.4 kPa
349.82 K	1725.8 ± 2.7 kPa
353.22 K	1859.3 ± 2.9 kPa
357.13 K	2022.6 ± 3.2 kPa
361.12 K	2201.1 ± 3.5 kPa
364.88 K	2380.9 ± 3.7 kPa
369.16 K	2600 ± 4.1 kPa
373.22 K	2825.1 ± 4.4 kPa and 2825.2 ± 4.4 kPa and 2825.3 ± 4.4 kPa

FC(F)CC(F)(F)F [1,1,1,3,3-pentafluoropropane]
Settings	vapor or sublimation pressure
255.22 K	21.93 ± 0.39 kPa
259.37 K	27.28 ± 0.39 kPa and 27.27 ± 0.39 kPa
263.27 K	33.25 ± 0.39 kPa and 33.24 ± 0.39 kPa
267.31 K	40.47 ± 0.39 kPa
271.03 K	48.26 ± 0.4 kPa
275.31 K	58.66 ± 0.4 kPa
279.32 K	69.99 ± 0.4 kPa and 69.98 ± 0.4 kPa
279.33 K	69.98 ± 0.4 kPa and 69.99 ± 0.4 kPa
283.2 K	82.37 ± 0.41 kPa and 82.36 ± 0.41 kPa
285.08 K	89.02 ± 0.41 kPa and 89.05 ± 0.41 kPa
288.91 K	103.68 ± 0.42 kPa and 103.67 ± 0.42 kPa
291.16 K	113.41 ± 0.43 kPa and 113.43 ± 0.43 kPa
291.17 K	113.42 ± 0.43 kPa
292.62 K	119.97 ± 0.43 kPa and 120.01 ± 0.43 kPa
295.55 K	134.37 ± 0.45 kPa and 134.41 ± 0.45 kPa
298.31 K	149.04 ± 0.46 kPa and 149.05 ± 0.46 kPa
300.16 K	159.38 ± 0.47 kPa
313.13 K	250.2 ± 0.54 kPa and 250.26 ± 0.54 kPa and 250.34 ± 0.54 kPa
317.43 K	287.67 ± 0.58 kPa and 287.72 ± 0.58 kPa and 287.84 ± 0.58 kPa
321.77 K	329.9 ± 0.63 kPa and 329.87 ± 0.63 kPa
327.34 K	390.52 ± 0.7 kPa and 390.61 ± 0.7 kPa
333.55 K	467.79 ± 0.79 kPa
344.96 K	639.43 ± 1 kPa
347.8 K	688.83 ± 1.1 kPa and 688.9 ± 1.1 kPa
351.54 K	757.91 ± 1.2 kPa and 757.93 ± 1.2 kPa and 757.86 ± 1.2 kPa
354.13 K	808.71 ± 1.3 kPa
354.15 K	809.38 ± 1.3 kPa
357.7 K	883.2 ± 1.4 kPa
362.21 K	984.31 ± 1.6 kPa and 984.35 ± 1.6 kPa
364.47 K	1038.2 ± 1.6 kPa
367.1 K	1103.6 ± 1.7 kPa
367.11 K	1103.6 ± 1.7 kPa
371.11 K	1209.3 ± 1.9 kPa
371.12 K	1209.3 ± 1.9 kPa
374.81 K	1313.1 ± 2.1 kPa
374.95 K	1317.3 ± 2.1 kPa
377.03 K	1378.9 ± 2.2 kPa
381.38 K	1514.3 ± 2.4 kPa
384.5 K	1617.4 ± 2.5 kPa
388.32 K	1751.2 ± 2.8 kPa
393.64 K	1950.8 ± 3.1 kPa
